Laboratory results reported in BindingDB's records for doi:10.1021/jm00018a023 (Upjohn, 1995).

target: T1, Dimer of Gag-Pol polyprotein [489-587] (Human immunodeficiency virus 1, UniProt P12497); assay: Protease Inhibition Assay; conditions: pH 5; 22 °C
T1 construct: 489-587
Source text: HIV-1 protease was purified and refolded from E. coli inclusion bodies. The substrate used spans the p17-p24 processing site (R-V-S-Q-N-Y-P-I-V-Q-N-K) and was derivatized with biotin and fluorescein isothiocyanate (FITC) at the amino and carboxy termini. In the presence of HIV-l protease, the substrate is rapidly cleaved into two parts. The biotinylated amino terminal fragment binds to the avidin beads while the FITC-containing carboxy1 terminal fragment is removed through the membrane. […] The bound fluorescence is obtained by processing on an IDEXX Screen Machine. Determination of Ki values with this assay requires analysis under conditions in which substrate concentration resides substantially below Km and the inhibitor concentrations greatly exceeds the Ki value and the enzyme concentration.

Point of comparison: `CC(C)(C)OC(=O)NCCC(=O)Nc1cccc(C(c2c(O)c3ccccc3oc2=O)C2CC2)c1` (centres undefined) [tert-butyl N-[2-({3-[cyclopropyl(4-hydroxy-2-oxo-2H-chromen-3-yl)methyl]phenyl}carbamoyl)ethyl]carbamate], Ki 86 nM. Against it:
- CCC(c1cccc(NC(=O)CCNC(=O)OC(C)(C)C)c1)c1c(O)c2ccc(OC)cc2oc1=O (centres undefined) [4-Hydroxy-3-[1-3-[[3-[(tert-butyloxycarbonyl)amino]-1-oxopropyl]amino]phenyl]propyl]-7-methoxycoumarin] — 2-fold higher, 170 nM
- CCC(c1cccc(C(=O)NCc2nc3ccccc3[nH]2)c1)c1c(O)c2ccccc2oc1=O (centres undefined) [N-(1H-1,3-benzodiazol-2-ylmethyl)-3-[1-(4-hydroxy-2-oxo-2H-chromen-3-yl)propyl]benzamide] — 51-fold higher, 4400 nM
- CCC(c1cccc(C(=O)N[C@H](C(=O)NCc2ccccn2)C(C)CC)c1)c1c(O)c2ccccc2oc1=O (some centres undefined) [3-[1-(4-Hydroxy-2-oxo-2H-1-benzopyran-3-yl)propyl]-N-[2-methyl-1-[[(2-pyridinylmethyl)amino]carbonyl]butyl]benzamide] — 4.7-fold higher, 400 nM
